Here are results for one compound from patent publication EP0067913B1, “Composition for the treatment of acne” (RUSH-HAMPTON INDUSTRIES, INC., priority 1981, dated 1982).

Data set [1] relates to Pityrosporum ovale ATCC 14521. Kind of data set: Fungicidal activity test in corn oil medium (Sabouraud Dextrose broth and corn oil). Format: cell-based. As to conditions: concentrations of 200 ppm or greater in the upper oil layer; 37°C, aerobic conditions, 7 days. The protocol: This organism is cultured in a corn oil medium prepared with Sabouraud Dextrose broth and Mazola@ Corn Oil. Solutions of naringenin and this broth were made in which the concentration of naringenin in the upper oil layer was 200 ppm, 400 ppm, 600 ppm, and 800 ppm. Three solutions of each concentration were tested. Each tube was inoculated with a loop full of the test organism and incubated at 37°C under aerobic conditions for 7 days.

Data set [2] in a line: Water solubility (qualitative comparison). The format is physicochemical. As to conditions: qualitative comparison with partially hydrolyzed naringin.

Turning to `O=C1C[C@@H](c2ccc(O)cc2)Oc2cc(O)cc(O)c21` [naringenin], the “effect on the growth of Pityrosporum ovale ATCC 14521” value in data set [1] is “severely retarded the growth”. Moreover, the water solubility result in data set [2] is “less than those of partially hydrolyzed naringin”.
